Results on three compounds are retold here after article PMC5519041, “Differing roles for short chain fatty acids and GPR43 agonism in the regulation of intestinal barrier function and immune responses” (PLoS ONE, 2017).

Molecules are shown by their SMILES. Read-outs that look alike come from different tables or passages of the source.

The target in one data set is T1, human FFA2 receptor (Homo sapiens, UniProt O15552).
T1 construct: expressed in transfected cells
T1 sequence (O15552 1-330): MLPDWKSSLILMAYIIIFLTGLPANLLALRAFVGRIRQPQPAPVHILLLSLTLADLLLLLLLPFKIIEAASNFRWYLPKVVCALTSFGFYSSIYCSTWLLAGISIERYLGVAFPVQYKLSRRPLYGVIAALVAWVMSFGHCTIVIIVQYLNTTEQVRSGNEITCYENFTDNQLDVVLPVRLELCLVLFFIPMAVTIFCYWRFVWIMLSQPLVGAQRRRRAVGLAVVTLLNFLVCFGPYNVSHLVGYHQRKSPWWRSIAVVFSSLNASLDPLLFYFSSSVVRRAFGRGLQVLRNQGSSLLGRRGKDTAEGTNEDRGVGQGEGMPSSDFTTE
The experiment in a line: Aequorin assay, cytosolic calcium in CHO-K1 cells stably expressing aequorin and human FFA2 receptor. It counts as cell-based. The note with it: CHO-K1 cells stably expressing human GPR43, read-out: Ca^2+ (Aequorin). How it is done:
Agonist-induced receptor activation was determined by an increase in cytosolic calcium concentration in CHO-K1 cells stably expressing the mitochondrial targeted aequorin and human FFA2 receptor. The increased cytosolic calcium was monitored by luminescence emitted from aequorin as previously described

For a further data set, the system named is human T cells. The experiment in a line: One-way mixed lymphocyte reaction, T cell proliferation and cytokines. Type of data set: cell-based. The source says:
Amgen Institutional Review Board approval and consent was obtained for collection and the studies involving human blood. PBMC were obtained from volunteers’ human blood using Ficoll. T cells were isolated using magnetic sorting with a pan T cell isolation kit (Miltenyi Biotec). Stimulator cells were isolated by negative magnetic sorting using anti-CD3 beads to deplete CD3+ cells. The stimulator cells were irradiated and mixed together with the purified T cells in the presence or absence of the SCFA or agonist. Supernatants were collected at day 3 for cytokine measurements using Meso Scale Discovery multiplex kits, and proliferation was measured at day 4 after an 18 hour pulse with 1μCi 3H-thymidine per well.

In the next data set the target is T2, human GPR43 (Homo sapiens, UniProt O15552).
T2 construct: expressed in transfected cells
T2 sequence (O15552 1-330): T1 sequence (O15552 1-330)
Nature of the data set: cAMP inhibition assay (HTRF), forskolin-induced cAMP in CHO cells stably expressing human GPR43. Type of data set: cell-based. To be noted: inhibition of forskolin-induced cAMP production. How it is done: A competitive, HTRF® immunoassay (CisBio Dynamic 2 cAMP kit) was used to measure the inhibition of cAMP response in CHO cells stably expressing human GPR43. Assay-ready cells were thawed, resuspended in PBS and stimulated with forskolin (3μM final) for 45 minutes at room temperature in the presence of serially diluted natural ligands or test compounds in a 384 well plate (Greiner). Subsequently the cells were lysed by adding lysis buffer containing the cAMP-Tracer and Europium-labeled anti-cAMP antibody according to the manufacturer’s protocol. The signals were recorded using a Perkin Elmer Envision. The raw data was calculated as fluorescence ratio (665nm/620nm) and analyzed using GraphPad Prism Software.

For another data set, the system named is human PBMC. Nature of the data set: LPS stimulation of PBMC, cytokine production. Type of data set: cell-based. To be noted: for effect on LPS-induced cytokine production: μM range; for effect on LPS-induced cytokine production / IC50: 1 μg/mL LPS, 18 hours; for IC50: Homo sapiens, PBMC, 45 minutes preincubation. How it is done: Amgen Institutional Review Board approval and consent was obtained for collection and the studies involving human blood. PBMC were isolated from heparinized blood using Ficoll and then plated onto 96-well plates. Butyrate or GPR43 agonists were incubated with the PBMC for 45 minutes prior to the addition of 1 μg/mL lipopolysaccharide (LPS). Cell culture supernatants were collected at 18 hours post-stimulation. TNFα, IL-1β and IL-6 production were measured using Meso Scale Discovery multiplex kits.

The test system of data set [1] is C2BBe1 cells. The experiment in a line: Intestinal barrier function by ECIS in C2BBe1 cells. Type of data set: cell-based, human. The note with it: 48 hours; for barrier resistance (ECIS), barrier formation: 75 Hz, #58 at 1 uM and 10 uM vs DMSO control. How it is done:
Cells were cultured in DMEM containing 10% FBS, and the next day (day 1), the medium was replaced with that containing 0.5% serum. On day 2, media was changed and test agents were added in duplicate in media containing 0.5% serum. The experiment was concluded 48 hours later (day 4). Barrier resistance was measured on the ECIS instrument. The plots shown are at 75 Hz beginning at day 2 post-addition of the test agents with resistance values normalized to those observed just prior to the addition of test agents. For barrier disruption and reformation studies, cells were cultured in transwells in the ECIS array as described above in the presence of 10% serum for one day and 0.5% serum for another day. On day 2, the media was replaced with media containing 0.5% serum and 2.5 mM EGTA (in apical and basolateral chambers). The EGTA was washed off 5 hours later and replaced with media containing 0.5% serum and test agents. Cells were monitored over the next 48 hours for barrier reformation and the plots shown are at 75 Hz with resistance values normalized to those observed just prior to the addition of test agents.

The test system of data set [2] is intestinal epithelial cells. Set-up: method as in PMID 9142899, PMID 17211138. The note with it: published data ref [13], [15]; cited from earlier work.
The test system of data set [3] is C2BBe1 cells. The experiment in a line: Intestinal barrier function by TEER and Lucifer Yellow in C2BBe1 monolayers.
Where [4] appears, read: 72 h, supernatant day 3, read-out: IL-17A IC50.

In the case of `CC(C)[C@H](C(=O)Nc1ncc(F)s1)c1ccc(Cl)cc1` [#44], the EC50 on human FFA2 receptor (10% FBS) was 1 µM; at human FFA2 receptor (No FBS), 0.6 µM; at human GPR43, 1.1 µM. For the same compound, in the data set with human T cells (setting [4]), the IC50 stood at 2.45 µM. Besides, the “effect on LPS-induced cytokine production” value in the data set with human PBMC is “only the highest concentration of the agonist #44 resulted in inhibition of cytokine production”.

Take `CC(C)(C)[C@H](C(=O)Nc1ncc(-c2ccccc2)s1)c1ccc(Cl)cc1` [#58]: the EC50 at human FFA2 receptor (10% FBS) came out at 0.6 µM; on human FFA2 receptor (No FBS) it was 0.3 µM; at human GPR43, 1.8 µM. Further, in the data set on human T cells (setting [4]), the IC50 turned out to be 8.88 µM. Besides, in the data set on C2BBe1 cells [1], the “barrier resistance (ECIS), barrier formation” value is listed as “did not result in increased resistance”. Further, the “effect on LPS-induced cytokine production” value in the data set with human PBMC was “slight increase in some cytokines”.

On to `CCCC(=O)O` [Butyrate, butyrate], for which the “concentrations toxic to intestinal epithelial cells” value in data set [2] was more than 5000 µM. In addition, the IC50 is 50 µM in the data set on human T cells (72 h, supernatant day 3, read-out: IFNγ IC50); 60 µM with human T cells (setting [4]); 170 µM with human T cells (day 4, 3H-thymidine, read-out: Proliferation IC50); 440 µM in the data set on human PBMC (read-out: IL-1β IC50); 2440 µM with human PBMC (read-out: IL-6 IC50); 130 µM in the data set with human PBMC (read-out: TNFα IC50). Besides, the “barrier reformation after EGTA disruption (ECIS resistance)” value in the data set on C2BBe1 cells [1] (2.5 mM EGTA 5 hours, then test agents) is “earlier and higher levels of resistance”. Besides, the “barrier resistance (ECIS), barrier formation” value in the data set with C2BBe1 cells [1] was “quicker increase, as well as higher measurements of resistance”. This compound had an EC50 at human GPR43 of 1060 µM. For the same compound, in the data set on C2BBe1 cells [3] (5 mM), the “toxicity in TEER assays” value was “appeared to be toxic”. In the data set with C2BBe1 cells [3] (C2BBe1 monolayers, day 5), the “effect on transepithelial electrical resistance (TEER)” value is listed as “most potent of the three SCFA”. Further, the cell viability result in the data set with human PBMC (highest concentrations utilized in this assay) is “not altered”.
